This assay addresses T1, Bone morphogenetic protein 1 (Homo sapiens, UniProt P13497).
T1 sequence (P13497 whole entry): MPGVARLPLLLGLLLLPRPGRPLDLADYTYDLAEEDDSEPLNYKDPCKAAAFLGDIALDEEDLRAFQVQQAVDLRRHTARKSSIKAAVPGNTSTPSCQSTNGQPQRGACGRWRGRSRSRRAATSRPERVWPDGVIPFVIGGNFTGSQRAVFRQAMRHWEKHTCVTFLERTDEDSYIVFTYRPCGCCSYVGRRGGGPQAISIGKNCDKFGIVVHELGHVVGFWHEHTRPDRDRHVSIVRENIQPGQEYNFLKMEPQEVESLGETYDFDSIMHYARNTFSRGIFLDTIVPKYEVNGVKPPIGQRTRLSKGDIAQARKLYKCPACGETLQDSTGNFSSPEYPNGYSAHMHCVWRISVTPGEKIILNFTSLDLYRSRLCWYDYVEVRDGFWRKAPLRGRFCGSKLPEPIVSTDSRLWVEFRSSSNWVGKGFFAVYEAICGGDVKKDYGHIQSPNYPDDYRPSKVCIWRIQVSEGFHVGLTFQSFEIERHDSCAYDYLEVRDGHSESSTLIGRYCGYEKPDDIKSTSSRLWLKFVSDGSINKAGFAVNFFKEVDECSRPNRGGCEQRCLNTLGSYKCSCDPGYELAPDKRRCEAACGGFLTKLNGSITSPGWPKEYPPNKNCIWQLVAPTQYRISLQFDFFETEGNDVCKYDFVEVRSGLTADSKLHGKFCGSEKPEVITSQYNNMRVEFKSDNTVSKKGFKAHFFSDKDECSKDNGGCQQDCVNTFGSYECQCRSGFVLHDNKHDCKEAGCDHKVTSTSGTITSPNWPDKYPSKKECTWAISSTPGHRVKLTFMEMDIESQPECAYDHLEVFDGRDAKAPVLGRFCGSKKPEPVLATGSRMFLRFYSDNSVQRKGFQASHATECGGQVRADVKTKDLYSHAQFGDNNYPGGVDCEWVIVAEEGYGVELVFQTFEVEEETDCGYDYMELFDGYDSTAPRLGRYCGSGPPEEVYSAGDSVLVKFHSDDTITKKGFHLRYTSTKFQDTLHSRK
Briefly: Inhibitory activity against procollagen C-proteinase (PCP).
What is called IC50 is the concentration that gives 50% inhibition. A lower IC50 goes with greater potency. `C=Cc1ccc(CN([C@H](Cc2cccs2)C(=O)NO)S(=O)(=O)c2ccc(OC)cc2)cc1` showed an IC50 of 190 nM.
To `COc1ccc(S(=O)(=O)N(Cc2cccc(F)c2F)[C@H](Cc2cccs2)C(=O)NO)cc1` belongs 100 nM; to `COc1ccc(S(=O)(=O)N(Cc2ccc(-c3cnns3)cc2)[C@H](Cc2cccs2)C(=O)NO)cc1`, 440 nM.
To `COc1ccc(S(=O)(=O)N(Cc2sc3scc(C)c3c2C)[C@H](C)C(=O)O)cc1` belongs 50 nM.
Under `COc1ccc(S(=O)(=O)N(Cc2ccc3c(c2)OCO3)[C@@H](C(=O)O)C2CCN(C(=O)OC(C)(C)C)CC2)cc1` stands 26 nM.
The molecule `COc1ccc(S(=O)(=O)N(Cc2cccc(Cl)c2)[C@H](Cc2cccs2)C(=O)NO)cc1` came in with an IC50 of 390 nM. This IC50 is about 15-fold higher than that of the molecule before.
In the case of `COc1ccc(S(=O)(=O)N(Cc2cccc(Br)c2)[C@H](Cc2cccs2)C(=O)O)cc1`, it took 230 nM to reach half-maximal inhibition (IC50).
Under `COc1ccc(S(=O)(=O)N(Cc2cccc(Br)c2)[C@H](Cc2cccs2)C(=O)NO)cc1` stands 260 nM.
Under `COc1ccc(S(=O)(=O)N(Cc2ccc3c(c2)OCO3)[C@H](Cc2cccs2)C(=O)O)cc1` stands 24 nM; under `COc1ccc(S(=O)(=O)N(Cc2ccc3c(c2)OCO3)[C@H](COCc2ccccc2)C(=O)O)cc1`, 380 nM; under `COc1ccc(S(=O)(=O)N(Cc2cc(C)on2)[C@H](Cc2cccs2)C(=O)O)cc1`, 120 nM.
For the molecule `COc1ccc(S(=O)(=O)N(Cc2ccc3c(c2)OCO3)[C@H](CCC(=O)OC2CCCCC2)C(=O)O)cc1`, the IC50 was 470 nM.
Under `COc1ccc(S(=O)(=O)N(Cc2ccc(I)cc2)[C@H](Cc2cccs2)C(=O)NO)cc1` stands 360 nM; under `COc1ccc(S(=O)(=O)N(Cc2cc(F)c(F)cc2F)[C@H](Cc2cccs2)C(=O)NO)cc1`, 180 nM.
Molecule `COC(=O)c1ccc(CN([C@H](Cc2cccs2)C(=O)O)S(=O)(=O)c2ccc(OC)cc2)cc1` gave an IC50 of 210 nM. This IC50 and that of the molecule before are within 1.5-fold of each other.
Consider `COc1ccc(S(=O)(=O)N(Cc2ccc(OC)c(C)c2C)[C@H](C)C(=O)O)cc1`, for which half-maximal inhibition (IC50) was put at 200 nM.
Under `COc1ccc(S(=O)(=O)N(Cc2ccc(C(C)C)cc2)[C@H](C)C(=O)O)cc1` stands 350 nM; under `C=CCOc1ccc2ccc(CN([C@H](Cc3cccs3)C(=O)NO)S(=O)(=O)c3ccc(OC)cc3)cc2c1`, 290 nM; under `COc1ccc(CSC[C@H](C(=O)O)N(Cc2ccc3c(c2)OCO3)S(=O)(=O)c2ccc(OC)cc2)cc1`, 250 nM.
For the molecule `COc1ccc(S(=O)(=O)N(Cc2ccc(OC)c(C)c2)[C@H](Cc2cccs2)C(=O)NO)cc1`, 490 nM corresponded to half-maximal inhibition (IC50).
`COc1ccc(S(=O)(=O)N(Cc2ccc(Cl)c(Cl)c2)[C@H](Cc2cccs2)C(=O)NO)cc1` gave an IC50 of 440 nM. This IC50 and that of the molecule before are within 1.5-fold of each other.
The molecule `COc1ccc(S(=O)(=O)N(Cc2cccc(C)c2[N+](=O)[O-])[C@H](C)C(=O)O)cc1` returned an IC50 of 380 nM.

The values are drawn from ChEMBL document CHEMBL1135293, “Amino acid derived sulfonamide hydroxamates as inhibitors of procollagen C-proteinase. Part 2: Solid-phase optimization of side chains” (Bioorg Med Chem Lett, 2002).
